Test results: US10760110B2, “Antibiotic testing and screening system” (priority 2017, dated 2020)
Converted amounts (≈) assume the structure as drawn. Read-outs that look alike come from different tables or passages of the source.

Assays:
Settings in all cases: Klebsiella pneumoniae
[1] = test system: K. pneumoniae NVT1001 and its ΔompK35/36 and/or ΔramR mutants; assay: Etest MIC, OmpK35/36 loss and AcrAB-TolC overexpression (ΔramR) strains (Table 6); assay type: cell-based, Klebsiella pneumoniae
Outline: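 Etest MICs against K. pneumoniae NVT1001 and its ΔompK35/36 and/or ΔramR mutants, rounded up to the next two-fold value. For NVT1001 carrying pACYC177-blaOXA-48, ceftazidime and cefotaxime MICs by CLSI broth microdilution, interpreted with CLSI 2017 breakpoints.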

[2] = test system: K. pneumoniae NVT1001 strains with carbapenemase plasmids; assay: Etest MIC of β-lactams, OmpK35/36 loss, ΔramR and/or carbapenemase (Table 9); assay type: cell-based, Klebsiella pneumoniae
Outline: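 Cloned resistance genes in pACYC177 or pACYC184 were electroporated into K. pneumoniae NVT1001. MICs were determined by Etest and rounded up to the next two-fold value. Ceftazidime and cefotaxime against the blaOXA-48 construct were also tested by CLSI broth microdilution, with breakpoints from CLSI 2017 (cephalothin CLSI 2015, moxifloxacin EUCAST 2017).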

[3] = test system: K. pneumoniae NVT1001 ΔramRΔompK35/36 mutant and its revertants; assay: Etest MIC, ΔramRΔompK35/36 mutant and its revertants (Table 7); assay type: cell-based

CO/N=C(\C(=O)N[C@@H]1C(=O)N2C(C(=O)O)=C(COC(N)=O)CS[C@H]12)c1ccco1 [Cefuroxime]
MIC ([1]; WT, NVT1001, read-out: MIC): 4 µg/mL (≈ 9.43 µM) | MIC ([1]; Δ35, ΔompK35 mutant): 8 µg/mL (≈ 18.9 µM) | MIC ([1]; Δ35/36, ΔompK35/36 mutant): 32 µg/mL (≈ 75.4 µM) | MIC ([1]; Δ36, ΔompK36 mutant): 16 µg/mL (≈ 37.7 µM) | MIC ([1]; ΔramR mutant): 32 µg/mL (≈ 75.4 µM) | MIC ([1]; ΔramRΔ35, ΔramRΔompK35 mutant): 64 µg/mL (≈ 151 µM) | MIC ([1]; ΔramRΔ35/36, ΔramRΔompK35/36 mutant): 128 µg/mL (≈ 302 µM) | MIC ([1]; ΔramRΔ36, ΔramRΔompK36 mutant): > 256 µg/mL | MIC ([2]; IMP-8 on pACYC177, WT (NVT1001), read-out: MIC): > 256 µg/mL | MIC ([2]; IMP-8 on pACYC177, Δ35 (ΔompK35 mutant)): > 256 µg/mL | MIC ([2]; IMP-8 on pACYC177, Δ35/36 (ΔompK35/36 mutant)): > 256 µg/mL | MIC ([2]; IMP-8 on pACYC177, Δ36 (ΔompK36 mutant)): > 256 µg/mL | MIC ([2]; IMP-8 on pACYC177, ΔramR mutant): > 256 µg/mL | MIC ([2]; IMP-8 on pACYC177, ΔramRΔ35 (ΔramRΔompK35 mutant)): > 256 µg/mL | MIC ([2]; IMP-8 on pACYC177, ΔramRΔ35/36 (ΔramRΔompK35/36 mutant)): > 256 µg/mL | MIC ([2]; IMP-8 on pACYC177, ΔramRΔ36 (ΔramRΔompK36 mutant)): > 256 µg/mL | MIC ([2]; KPC-2 on pACYC177, WT (NVT1001), read-out: MIC): > 256 µg/mL | MIC ([2]; KPC-2 on pACYC177, Δ35 (ΔompK35 mutant)): > 256 µg/mL | MIC ([2]; KPC-2 on pACYC177, Δ35/36 (ΔompK35/36 mutant)): > 256 µg/mL | MIC ([2]; KPC-2 on pACYC177, Δ36 (ΔompK36 mutant)): > 256 µg/mL | MIC ([2]; KPC-2 on pACYC177, ΔramR mutant): > 256 µg/mL | MIC ([2]; KPC-2 on pACYC177, ΔramRΔ35 (ΔramRΔompK35 mutant)): > 256 µg/mL | MIC ([2]; KPC-2 on pACYC177, ΔramRΔ35/36 (ΔramRΔompK35/36 mutant)): > 256 µg/mL | MIC ([2]; KPC-2 on pACYC177, ΔramRΔ36 (ΔramRΔompK36 mutant)): > 256 µg/mL | MIC ([2]; KPC-3 on pACYC177, WT (NVT1001), read-out: MIC): > 256 µg/mL | MIC ([2]; KPC-3 on pACYC177, Δ35 (ΔompK35 mutant)): > 256 µg/mL | MIC ([2]; KPC-3 on pACYC177, Δ35/36 (ΔompK35/36 mutant)): > 256 µg/mL | MIC ([2]; KPC-3 on pACYC177, Δ36 (ΔompK36 mutant)): > 256 µg/mL | MIC ([2]; KPC-3 on pACYC177, ΔramR mutant): > 256 µg/mL | MIC ([2]; KPC-3 on pACYC177, ΔramRΔ35 (ΔramRΔompK35 mutant)): > 256 µg/mL | MIC ([2]; KPC-3 on pACYC177, ΔramRΔ35/36 (ΔramRΔompK35/36 mutant)): > 256 µg/mL | MIC ([2]; KPC-3 on pACYC177, ΔramRΔ36 (ΔramRΔompK36 mutant)): > 256 µg/mL | MIC ([2]; NDM-1 on pACYC177, WT (NVT1001), read-out: MIC): > 256 µg/mL | MIC ([2]; NDM-1 on pACYC177, Δ35 (ΔompK35 mutant)): > 256 µg/mL | MIC ([2]; NDM-1 on pACYC177, Δ35/36 (ΔompK35/36 mutant)): > 256 µg/mL | MIC ([2]; NDM-1 on pACYC177, Δ36 (ΔompK36 mutant)): > 256 µg/mL | MIC ([2]; NDM-1 on pACYC177, ΔramR mutant): > 256 µg/mL | MIC ([2]; NDM-1 on pACYC177, ΔramRΔ35 (ΔramRΔompK35 mutant)): > 256 µg/mL | MIC ([2]; NDM-1 on pACYC177, ΔramRΔ35/36 (ΔramRΔompK35/36 mutant)): > 256 µg/mL | MIC ([2]; NDM-1 on pACYC177, ΔramRΔ36 (ΔramRΔompK36 mutant)): > 256 µg/mL | MIC ([2]; OXA-48 on pACYC177, WT (NVT1001), read-out: MIC): 8 µg/mL | MIC ([2]; OXA-48 on pACYC177, Δ35 (ΔompK35 mutant)): 16 µg/mL | MIC ([2]; OXA-48 on pACYC177, Δ35/36 (ΔompK35/36 mutant)): 128 µg/mL | MIC ([2]; OXA-48 on pACYC177, Δ36 (ΔompK36 mutant)): 32 µg/mL | MIC ([2]; OXA-48 on pACYC177, ΔramR mutant): 64 µg/mL | MIC ([2]; OXA-48 on pACYC177, ΔramRΔ35 (ΔramRΔompK35 mutant)): 64 µg/mL | MIC ([2]; OXA-48 on pACYC177, ΔramRΔ35/36 (ΔramRΔompK35/36 mutant)): > 256 µg/mL | MIC ([2]; OXA-48 on pACYC177, ΔramRΔ36 (ΔramRΔompK36 mutant)): > 256 µg/mL | MIC ([2]; VIM-1 on pACYC177, WT (NVT1001), read-out: MIC): > 256 µg/mL | MIC ([2]; VIM-1 on pACYC177, Δ35 (ΔompK35 mutant)): > 256 µg/mL | MIC ([2]; VIM-1 on pACYC177, Δ35/36 (ΔompK35/36 mutant)): > 256 µg/mL | MIC ([2]; VIM-1 on pACYC177, Δ36 (ΔompK36 mutant)): > 256 µg/mL | MIC ([2]; VIM-1 on pACYC177, ΔramR mutant): > 256 µg/mL | MIC ([2]; VIM-1 on pACYC177, ΔramRΔ35 (ΔramRΔompK35 mutant)): > 256 µg/mL | MIC ([2]; VIM-1 on pACYC177, ΔramRΔ35/36 (ΔramRΔompK35/36 mutant)): > 256 µg/mL | MIC ([2]; VIM-1 on pACYC177, ΔramRΔ36 (ΔramRΔompK36 mutant)): > 256 µg/mL | MIC ([2]; no supplemental plasmid, WT (NVT1001), read-out: MIC): 4 µg/mL | MIC ([2]; no supplemental plasmid, Δ35 (ΔompK35 mutant)): 8 µg/mL | MIC ([2]; no supplemental plasmid, Δ35/36 (ΔompK35/36 mutant)): 32 µg/mL | MIC ([2]; no supplemental plasmid, Δ36 (ΔompK36 mutant)): 16 µg/mL | MIC ([2]; no supplemental plasmid, ΔramR mutant): 32 µg/mL | MIC ([2]; no supplemental plasmid, ΔramRΔ35 (ΔramRΔompK35 mutant)): 64 µg/mL | MIC ([2]; no supplemental plasmid, ΔramRΔ35/36 (ΔramRΔompK35/36 mutant)): 128 µg/mL | MIC ([2]; no supplemental plasmid, ΔramRΔ36 (ΔramRΔompK36 mutant)): > 256 µg/mL | MIC ([3]; ΔramRΔompK35/36::ompK35/36 revertant): 32 µg/mL | MIC ([3]; ΔramRΔompK35/36::ompK35 revertant): > 256 µg/mL | MIC ([3]; ΔramRΔompK35/36::ompK36 revertant): 32 µg/mL | MIC ([3]; ΔramRΔompK35/36::ramR revertant): 32 µg/mL | MIC ([3]; ΔramRΔompK35/36::ramR::ompK35/36 revertant): 4 µg/mL | MIC ([3]; ΔramRΔompK35/36::ramR::ompK35 revertant): 16 µg/mL | MIC ([3]; ΔramRΔompK35/36::ramR::ompK36 revertant): 8 µg/mL | MIC ([3]; ΔramRΔompK35/36 mutant): 128 µg/mL
